Reference: article PMC6917776, “Discovery of a chemical probe for PRDM9” (Nature Communications, 2019)

How the values were obtained:
[1] = system: RPMI-8226; assay: CelltiterGlo viability cell assay; format: cell-based
Method: (§1) Supplementary Figure 13. […] Viability of
(§2) (a) Multiple Myeloma lines and (b) Breast Cancer cell lines following 3 or 6 days treatment with […]
(§3) manufacturer’s instructions as described in the Supplementary methods. Data are normalized to DMSO control. N=3 biological replicates, +/- SEM. Source data are provided as a Source Data […]
(§4) CelltiterGlo viability cell assay
(§5) Cells were seeded in 96 well plates at per-well densities of 10000 (MDA-MB436, ATCC-HTB130), 15000 (8226, kind gift from Rodger Tiedemann, Princess Margaret Cancer Centre), […]
(§6) kind gift from Rodger Tiedemann, Princess Margaret Cancer Centre) and 50000 (CAL851, kind gift from Mathieu Lupien, Princess Margaret Cancer Centre) and were treated at increasing concentrations of compounds ranging from 0.01 μM to 30 μM and assessed for proliferation using CelltiterGlo (Promega) following manufacturer’s instructions, as readout on days 3 and 6 as indicated. All cell lines were mycoplasma negative, as determined by MycoAlert™ Mycoplasma Detection Kit(Lonza). […]

[2] = system: HCC1143; assay: CelltiterGlo viability cell assay; format: cell-based
Method: as §1, §2, §3, §4, §5, §6

`COc1cc(OC)cc(-c2noc(N3CCN(C)C4(CCN(c5ccccc5)CC4)C3)n2)c1` [MRK-740N] was tested, and the “viability Replicate 2” value ([1]; 8226, 3 day, 30 uM) was 22.31, the “viability Replicate 3” value ([1]; 8226, 3 day, 30 uM) was 40.58 and the “viability Average” value ([1]; 8226, 6 day, 0.01 uM) was 98.95. For the same compound, the “viability Replicate 1” value ([1]; 8226, 6 day, 0.01 uM) was 98.27, the “viability Replicate 2” value ([1]; 8226, 6 day, 0.01 uM) was 97.90 and the “viability Replicate 3” value ([1]; 8226, 6 day, 0.01 uM) was 100.68. The “viability Average” value ([1]; 8226, 6 day, 0.03 uM) was 98.07, the “viability Replicate 1” value ([1]; 8226, 6 day, 0.03 uM) was 95.77 and the “viability Replicate 2” value ([1]; 8226, 6 day, 0.03 uM) was 97.65. The “viability Replicate 3” value ([1]; 8226, 6 day, 0.03 uM) was 100.80, the “viability Average” value ([1]; 8226, 6 day, 0.1 uM) was 98.68 and the “viability Replicate 1” value ([1]; 8226, 6 day, 0.1 uM) was 95.86. The “viability Replicate 2” value ([1]; 8226, 6 day, 0.1 uM) was 100.16, the “viability Replicate 3” value ([1]; 8226, 6 day, 0.1 uM) was 100.02 and the “viability Average” value ([1]; 8226, 6 day, 0.3 uM) was 96.98. For the same compound, the “viability Replicate 1” value ([1]; 8226, 6 day, 0.3 uM) was 94.57, the “viability Replicate 2” value ([1]; 8226, 6 day, 0.3 uM) was 97.72 and the “viability Replicate 3” value ([1]; 8226, 6 day, 0.3 uM) was 98.63. For the same compound, the “viability Average” value ([1]; 8226, 6 day, 1 uM) was 97.56, the “viability Replicate 1” value ([1]; 8226, 6 day, 1 uM) was 97.46 and the “viability Replicate 2” value ([1]; 8226, 6 day, 1 uM) was 98.37. The “viability Replicate 3” value ([1]; 8226, 6 day, 1 uM) was 96.84, the “viability Average” value ([1]; 8226, 6 day, 3 uM) was 100.28 and the “viability Replicate 1” value ([1]; 8226, 6 day, 3 uM) was 98.97. For the same compound, the “viability Replicate 2” value ([1]; 8226, 6 day, 3 uM) was 101.92, the “viability Replicate 3” value ([1]; 8226, 6 day, 3 uM) was 99.95 and the “viability Average” value ([1]; 8226, 6 day, 9.5 uM) was 107.21. The “viability Replicate 1” value ([1]; 8226, 6 day, 9.5 uM) was 106.83, the “viability Replicate 2” value ([1]; 8226, 6 day, 9.5 uM) was 105.76 and the “viability Replicate 3” value ([1]; 8226, 6 day, 9.5 uM) was 109.04. The “viability Average” value ([1]; 8226, 6 day, 30 uM) was 80.58, the “viability Replicate 1” value ([1]; 8226, 6 day, 30 uM) was 102.03 and the “viability Replicate 2” value ([1]; 8226, 6 day, 30 uM) was 55.75. The “viability Replicate 3” value ([1]; 8226, 6 day, 30 uM) was 83.98, the “viability Average” value ([2]; HCC1143, 3 day, 0.01 uM) was 99.63 and the “viability Replicate 1” value ([2]; HCC1143, 3 day, 0.01 uM) was 94.06. The “viability Replicate 2” value ([2]; HCC1143, 3 day, 0.01 uM) was 105.87, the “viability Replicate 3” value ([2]; HCC1143, 3 day, 0.01 uM) was 98.96 and the “viability Average” value ([2]; HCC1143, 3 day, 0.03 uM) was 100.04. The “viability Replicate 1” value ([2]; HCC1143, 3 day, 0.03 uM) was 98.98, the “viability Replicate 2” value ([2]; HCC1143, 3 day, 0.03 uM) was 103.01 and the “viability Replicate 3” value ([2]; HCC1143, 3 day, 0.03 uM) was 98.14. The “viability Average” value ([2]; HCC1143, 3 day, 0.1 uM) was 100.66, the “viability Replicate 1” value ([2]; HCC1143, 3 day, 0.1 uM) was 94.28 and the “viability Replicate 2” value ([2]; HCC1143, 3 day, 0.1 uM) was 108.89. The “viability Replicate 3” value ([2]; HCC1143, 3 day, 0.1 uM) was 98.81, the “viability Average” value ([2]; HCC1143, 3 day, 0.3 uM) was 101.81 and the “viability Replicate 1” value ([2]; HCC1143, 3 day, 0.3 uM) was 94.36. For the same compound, the “viability Replicate 2” value ([2]; HCC1143, 3 day, 0.3 uM) was 110.71, the “viability Replicate 3” value ([2]; HCC1143, 3 day, 0.3 uM) was 100.36 and the “viability Average” value ([2]; HCC1143, 3 day, 1 uM) was 102.28. For the same compound, the “viability Replicate 1” value ([2]; HCC1143, 3 day, 1 uM) was 95.62, the “viability Replicate 2” value ([2]; HCC1143, 3 day, 1 uM) was 111.25 and the “viability Replicate 3” value ([2]; HCC1143, 3 day, 1 uM) was 99.98. The “viability Average” value ([2]; HCC1143, 3 day, 3 uM) was 102.58, the “viability Replicate 1” value ([2]; HCC1143, 3 day, 3 uM) was 95.70 and the “viability Replicate 2” value ([2]; HCC1143, 3 day, 3 uM) was 110.25. For the same compound, the “viability Replicate 3” value ([2]; HCC1143, 3 day, 3 uM) was 101.79, the “viability Average” value ([2]; HCC1143, 3 day, 9.5 uM) was 96.93 and the “viability Replicate 1” value ([2]; HCC1143, 3 day, 9.5 uM) was 91.87. The “viability Replicate 2” value ([2]; HCC1143, 3 day, 9.5 uM) was 108.74, the “viability Replicate 3” value ([2]; HCC1143, 3 day, 9.5 uM) was 90.19 and the “viability Average” value ([2]; HCC1143, 3 day, 30 uM) was 42.44. For the same compound, the “viability Replicate 1” value ([2]; HCC1143, 3 day, 30 uM) was 41.34, the “viability Replicate 2” value ([2]; HCC1143, 3 day, 30 uM) was 45.73 and the “viability Replicate 3” value ([2]; HCC1143, 3 day, 30 uM) was 40.25. The “viability Average” value ([2]; HCC1143, 6 day, 0.03 uM) was 106.15, the “viability Replicate 1” value ([2]; HCC1143, 6 day, 0.03 uM) was 104.58 and the “viability Replicate 2” value ([2]; HCC1143, 6 day, 0.03 uM) was 106.98. For the same compound, the “viability Replicate 3” value ([2]; HCC1143, 6 day, 0.03 uM) was 106.88, the “viability Average” value ([2]; HCC1143, 6 day, 0.1 uM) was 106.29 and the “viability Replicate 1” value ([2]; HCC1143, 6 day, 0.1 uM) was 110.44. The “viability Replicate 2” value ([2]; HCC1143, 6 day, 0.1 uM) was 106.94, the “viability Replicate 3” value ([2]; HCC1143, 6 day, 0.1 uM) was 101.48 and the “viability Average” value ([2]; HCC1143, 6 day, 0.3 uM) was 109.27. For the same compound, the “viability Replicate 1” value ([2]; HCC1143, 6 day, 0.3 uM) was 115.47, the “viability Replicate 2” value ([2]; HCC1143, 6 day, 0.3 uM) was 108.44 and the “viability Replicate 3” value ([2]; HCC1143, 6 day, 0.3 uM) was 103.89. For the same compound, the “viability Average” value ([2]; HCC1143, 6 day, 1 uM) was 112.12, the “viability Replicate 1” value ([2]; HCC1143, 6 day, 1 uM) was 119.58 and the “viability Replicate 2” value ([2]; HCC1143, 6 day, 1 uM) was 108.44. For the same compound, the “viability Replicate 3” value ([2]; HCC1143, 6 day, 1 uM) was 108.34, the “viability Average” value ([2]; HCC1143, 6 day, 3 uM) was 118.66 and the “viability Replicate 1” value ([2]; HCC1143, 6 day, 3 uM) was 128.58. The “viability Replicate 2” value ([2]; HCC1143, 6 day, 3 uM) was 111.85, the “viability Replicate 3” value ([2]; HCC1143, 6 day, 3 uM) was 115.55 and the “viability Average” value ([2]; HCC1143, 6 day, 9.5 uM) was 112.33. The “viability Replicate 1” value ([2]; HCC1143, 6 day, 9.5 uM) was 117.62, the “viability Replicate 2” value ([2]; HCC1143, 6 day, 9.5 uM) was 107.90 and the “viability Replicate 3” value ([2]; HCC1143, 6 day, 9.5 uM) was 111.46. For the same compound, the “viability Average” value ([2]; HCC1143, 6 day, 30 uM) was 53.32, the “viability Replicate 1” value ([2]; HCC1143, 6 day, 30 uM) was 56.13 and the “viability Replicate 2” value ([2]; HCC1143, 6 day, 30 uM) was 63.79. For the same compound, the “viability Replicate 3” value ([2]; HCC1143, 6 day, 30 uM) was 40.04.
